Results published in US10716749B2, “Methods and compositions for treating a renal disease condition in a subject” (Palo Alto Investors, priority 2005, dated 2020).

Key:
[1] = tested on: Patients with a clinical diagnosis of hypertension; assay: Intrarenal administration of a renin inhibitor to treat hypertension; format: in vivo, human; details: weekly infusions via an intrarenal catheter; control: saline infusions; sphygmomanometer
Experimental: Patients are enrolled on the basis of a clinical diagnosis of hypertension based on serial systolic and diastolic blood pressure measurements by sphygmomanometer. Treatment subjects are treated by weekly infusions of Aliskiren via an intrarenal catheter.

[2] = tested on: Patients with anticipated use of radiocontrast prior to diagnostic coronary catherization; assay: Intrarenal administration of metoprolol to prevent contrast nephropathy; format: in vivo, human; details: intrarenal infusion 1 hour prior to the procedure; patients receiving radiocontrast
Experimental: Patients are prospectively enrolled on the basis of anticipated use of radiocontrast prior to a scheduled diagnostic coronary catherization. Treatment subjects are treated by intrarenal infusion of metoprolol 1 hour prior to the procedure.

Compound	diastolic blood pressure measurements compared to control [1]	systolic blood pressure measurements compared to control [1]	incidence of contrast nephropathy (as indicated by a greater than 25% increase in serum creatinine post-procedure) as compared to control [2]
COCCCOc1cc(C[C@@H](C[C@H](N)[C@@H](O)C[C@H](C(=O)NCC(C)(C)C(N)=O)C(C)C)C(C)C)ccc1OC [Aliskiren]	significant reduction	significant reduction	–
COCCc1ccc(OCC(O)CNC(C)C)cc1 (stereo not drawn) [metoprolol]	–	–	significant reduction
